Literature values as cited in patent US6356845B1, “Crystallization and structure determination of Staphylococcus aureus UDP-N-acetylenolpyruvylglucosamine reductase (S. aureus MurB)” (priority 1999, dated 2002).

Biological target: T1, S. aureus MurB (Staphylococcus aureus, UniProt P61431)
T1 construct: His6; made in house; host or cells: E. coli K12S (F' lacIq), plasmid pQE-10 murB obtained from Human Genome Sciences
Details: read-out: Km for EP-UDPGlcNAc with S. aureus MurB; substrate Km; S. Swaney, personal communication

C=C(O[C@H]1[C@H](O)[C@@H](CO)O[C@H](OP(=O)(O)OP(=O)(O)OC[C@H]2O[C@@H](n3ccc(=O)[nH]c3=O)[C@H](O)[C@@H]2O)[C@@H]1NC(C)=O)C(=O)O [EP-UDPGlcNAc, Uridine diphospho-N-acetylglucosamine enolpyruvate]
Km: 15 µM
